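Compound exposure: 48 hours, 5 concentrations, 96-well plates. At the GI50, growth is halved.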 Calls of active or inactive are those of the source. No stated cut-off is given here; in the data, active = GI50 up to about 1.1 µM and inactive = higher. Non-standard residues stand in square brackets, D forms with d. Residues, ends and D or L forms follow the SMILES beside them. *: point of attachment. NMeF = CN[CH](Cc1ccccc1)C(=O)O; NMeV = CN[CH](C(=O)O)C(C)C; Boc = CC(C)(C)OC(=O)*
Key:
Test in all cases: inhibition of tumour cell growth, NCI panel, 48 h
U-251 = system: U-251
SNB-19 = system: SNB-19
SF-268 = system: SF-268
UO-31 = system: UO-31
OVCAR-8 = system: OVCAR-8
EKVX = system: EKVX
MOLT-4 = system: MOLT-4
HT-29 = system: HT-29
KM12 = system: KM12
UACC-257 = system: UACC-257
SNB-75 = system: SNB-75
SN12C = system: SN12C
NCI-H226 = system: NCI-H226
RXF 393 = system: RXF 393
SF-539 = system: SF-539
RPMI-8226 = system: RPMI-8226
UACC-62 = system: UACC-62
LOX IMVI = system: LOX IMVI

| Compound | GI50 (U-251) | GI50 (SNB-19) | GI50 (SF-268) | GI50 (UO-31) | GI50 (OVCAR-8) | GI50 (EKVX) | GI50 (MOLT-4) | GI50 (HT-29) | GI50 (KM12) | GI50 (UACC-257) | GI50 (SNB-75) | GI50 (SN12C) | GI50 (NCI-H226) | GI50 (RXF 393) | GI50 (SF-539) | GI50 (RPMI-8226) | GI50 (UACC-62) | GI50 (LOX IMVI) |
| --- | --- | --- | --- | --- | --- | --- | --- | --- | --- | --- | --- | --- | --- | --- | --- | --- | --- | --- |
| CCOC(=O)c1ccc(N2C(=O)Cc3ccccc3C2=O)cc1 | > 100 µM (inactive) | > 100 µM (inactive) | > 100 µM (inactive) | > 100 µM (inactive) | > 100 µM (inactive) | > 100 µM (inactive) | > 100 µM (inactive) | > 100 µM (inactive) | > 100 µM (inactive) | > 100 µM (inactive) | > 100 µM (inactive) | > 100 µM (inactive) | > 100 µM (inactive) | > 100 µM (inactive) | > 100 µM (inactive) | > 100 µM (inactive) | > 100 µM (inactive) |  |
| C=CCO/N=C(\OC(=O)c1ccc([N+](=O)[O-])cc1)c1ccccc1 | > 100 µM (inactive) | > 100 µM (inactive) | > 100 µM (inactive) | > 100 µM (inactive) | > 100 µM (inactive) | > 100 µM (inactive) |  | > 100 µM (inactive) | > 100 µM (inactive) |  | > 100 µM (inactive) | > 100 µM (inactive) | > 100 µM (inactive) |  | > 100 µM (inactive) | > 100 µM (inactive) | > 100 µM (inactive) |  |
| COc1ccccc1NC(=O)C1=C(C)NC(C)=C(C(=O)Nc2ccccc2OC)C1c1ccccc1OC | > 100 µM (inactive) | > 100 µM (inactive) | > 100 µM (inactive) | > 100 µM (inactive) | > 100 µM (inactive) | > 100 µM (inactive) | 54.5 µM (inactive) | > 100 µM (inactive) | > 100 µM (inactive) | > 100 µM (inactive) | 19.3 µM (inactive) | > 100 µM (inactive) | > 100 µM (inactive) |  | > 100 µM (inactive) | 75.9 µM (inactive) | > 100 µM (inactive) | > 100 µM (inactive) |
| O=C(CC(=O)N1N=C(c2ccccc2)C(/N=N/c2ccc(Cl)cc2)C1=O)Nc1ccccc1Cl (stereo not given) | 24.5 µM (inactive) | 21.2 µM (inactive) | 22.5 µM (inactive) | 22 µM (inactive) |  | 27.6 µM (inactive) | 33 µM (inactive) | 37.4 µM (inactive) | 33.8 µM (inactive) |  | 16.4 µM (inactive) | 92 µM (inactive) | 19 µM (inactive) |  | 24.4 µM (inactive) | 27.6 µM (inactive) | 21.6 µM (inactive) | 26.2 µM (inactive) |
| CCC1CCc2c(c(=O)oc3c2cc(OC)c2cccc(OC)c23)C1 (stereo not given) | 74.3 µM (inactive) | > 100 µM (inactive) | 90.2 µM (inactive) | > 100 µM (inactive) | 50.1 µM (inactive) | > 100 µM (inactive) | 23.2 µM (inactive) | 33.4 µM (inactive) | 47.8 µM (inactive) | 67.1 µM (inactive) | 55.8 µM (inactive) | > 100 µM (inactive) | > 100 µM (inactive) | 21.7 µM (inactive) | 58.6 µM (inactive) | 49.5 µM (inactive) | 48.5 µM (inactive) |  |
| COc1ccc2nc3cc(Cl)ccc3c(Sc3ccc(NC(C)=O)cc3)c2c1 |  |  |  |  | 8.28 µM (inactive) |  | 6.87 µM (inactive) | 92.3 µM (inactive) | 9.33 µM (inactive) | 17.4 µM (inactive) | > 24 µM (inactive) | 14.9 µM (inactive) |  | 12.6 µM (inactive) | 12.3 µM (inactive) | 26.3 µM (inactive) | 15.3 µM (inactive) | 5.73 µM (inactive) |
| CCOC(=O)C12OC(OCC)(CC1(OCC)OCC)C1(CC1)C2=O (stereo not given) | > 100 µM (inactive) | > 100 µM (inactive) | > 100 µM (inactive) | > 100 µM (inactive) | > 100 µM (inactive) | > 100 µM (inactive) | > 100 µM (inactive) | > 100 µM (inactive) | > 100 µM (inactive) | > 100 µM (inactive) | > 100 µM (inactive) | > 100 µM (inactive) | > 100 µM (inactive) |  | > 100 µM (inactive) |  |  | > 100 µM (inactive) |
| [N-]=[N+]=Nc1cc(=O)oc2ccccc12 | > 100 µM (inactive) |  | > 100 µM (inactive) | > 100 µM (inactive) | > 100 µM (inactive) |  | > 100 µM (inactive) | > 100 µM (inactive) | > 100 µM (inactive) | > 100 µM (inactive) | > 100 µM (inactive) | > 100 µM (inactive) | > 100 µM (inactive) | > 100 µM (inactive) | > 100 µM (inactive) | > 100 µM (inactive) | > 100 µM (inactive) | > 100 µM (inactive) |
| O=C1C2=C(CCC2)Nc2cccc3ncn1c23 | > 100 µM (inactive) | > 100 µM (inactive) | > 100 µM (inactive) | > 100 µM (inactive) | > 100 µM (inactive) | > 100 µM (inactive) | > 100 µM (inactive) |  | 28.8 µM (inactive) | 64.7 µM (inactive) |  | 55.1 µM (inactive) |  | 96.4 µM (inactive) | > 100 µM (inactive) | > 100 µM (inactive) | 40.1 µM (inactive) | 24.5 µM (inactive) |
| CCCCCCCCC/C=C1\CCC(CN(C)C)C1=O (stereo not given) | 1.66 µM (inactive) | 5.87 µM (inactive) | 1.97 µM (inactive) | 2.02 µM (inactive) | 1.69 µM (inactive) | 2.47 µM (inactive) | 2.62 µM (inactive) | 1.7 µM (inactive) | 1.64 µM (inactive) | 1.69 µM (inactive) | 2.37 µM (inactive) | 2.08 µM (inactive) | 9.51 µM (inactive) |  | 1.79 µM (inactive) | 0.0619 µM (active) | 2.48 µM (inactive) | 1.22 µM (inactive) |
| O=C1c2ccccc2C(=O)c2[nH]c(Cc3ccccc3F)nc21 | 7.96 µM (inactive) | 38.5 µM (inactive) | 40.7 µM (inactive) | 52.5 µM (inactive) | 48.3 µM (inactive) | > 100 µM (inactive) | 89.7 µM (inactive) | 32.1 µM (inactive) | 38.9 µM (inactive) | 44.9 µM (inactive) | 50.7 µM (inactive) | > 100 µM (inactive) | 48.2 µM (inactive) | 20.2 µM (inactive) | 31.2 µM (inactive) | 57.4 µM (inactive) | 46.1 µM (inactive) |  |
| Cc1ccc(-c2nc3ccccc3c(=O)n2NC2OC(CO)C(O)C(O)C2O)cc1 (stereo not given) | > 100 µM (inactive) | > 100 µM (inactive) | > 100 µM (inactive) | > 100 µM (inactive) | > 100 µM (inactive) | > 100 µM (inactive) | > 100 µM (inactive) | > 100 µM (inactive) | > 100 µM (inactive) | > 100 µM (inactive) | > 100 µM (inactive) | > 100 µM (inactive) | > 100 µM (inactive) |  | > 100 µM (inactive) | > 100 µM (inactive) | > 100 µM (inactive) |  |
| COC(=O)C1CCc2c(OC)ccc(OC)c2C1=O (stereo not given) | > 100 µM (inactive) | > 100 µM (inactive) |  | > 100 µM (inactive) | > 100 µM (inactive) | > 100 µM (inactive) | > 100 µM (inactive) | > 100 µM (inactive) | > 100 µM (inactive) | > 100 µM (inactive) |  |  |  |  | > 100 µM (inactive) | > 100 µM (inactive) | > 100 µM (inactive) | > 100 µM (inactive) |
| [N-]=[N+]=Nc1c(Br)c(=O)[nH]c(=O)n1COCCO | > 100 µM (inactive) | > 100 µM (inactive) | > 100 µM (inactive) | > 100 µM (inactive) | > 100 µM (inactive) |  | > 100 µM (inactive) | > 100 µM (inactive) | > 100 µM (inactive) | > 100 µM (inactive) | 86.1 µM (inactive) | > 100 µM (inactive) |  | > 100 µM (inactive) | > 100 µM (inactive) |  | > 100 µM (inactive) | > 100 µM (inactive) |
| NC(CCC(=O)NC(CSSCCCCS(=O)O)C(=O)NCC(=O)O)C(=O)O (stereo not given) | > 100 µM (inactive) | > 100 µM (inactive) | > 100 µM (inactive) | > 100 µM (inactive) | > 100 µM (inactive) | > 100 µM (inactive) | 29.5 µM (inactive) | > 100 µM (inactive) | > 100 µM (inactive) | > 100 µM (inactive) | 23.4 µM (inactive) | > 100 µM (inactive) |  | > 100 µM (inactive) | > 100 µM (inactive) |  | > 100 µM (inactive) | > 100 µM (inactive) |
| CC1=NN(C(=O)c2ccc(Cl)cc2)C(=O)/C1=C/c1ccccc1O | > 100 µM (inactive) | > 100 µM (inactive) | > 100 µM (inactive) | > 100 µM (inactive) | > 100 µM (inactive) | > 100 µM (inactive) | > 100 µM (inactive) | > 100 µM (inactive) | > 100 µM (inactive) | > 100 µM (inactive) |  | > 100 µM (inactive) |  | > 100 µM (inactive) | > 100 µM (inactive) | > 100 µM (inactive) | > 100 µM (inactive) | > 100 µM (inactive) |
| CC(C)C(NC(=O)OC(C)(C)C)C(=O)N(C)C(Cc1ccccc1)C(=O)N(C)C(C(=O)N(C)C(C(=O)O)C(C)C)C(C)C (stereo not given) (Boc-V[NMeF][NMeV][NMeV]-OH; configuration not given here) | > 100 µM (inactive) | > 100 µM (inactive) | > 100 µM (inactive) | > 100 µM (inactive) | > 100 µM (inactive) | > 100 µM (inactive) | > 100 µM (inactive) | > 100 µM (inactive) | > 100 µM (inactive) | > 100 µM (inactive) |  | > 100 µM (inactive) | > 100 µM (inactive) | > 100 µM (inactive) | > 100 µM (inactive) | > 100 µM (inactive) | > 100 µM (inactive) | > 100 µM (inactive) |
